# Reference: ChEMBL document CHEMBL1151187, “Antioxidant xanthones from Garcinia vieillardii” (J Nat Prod, 2004)
# Calls of active or inactive are those of the source. No cut-off for these calls is given here.
# System: Radical scavenging activity
# Experiment: Antioxidant activity assessed as DPPH radical scavenging activity
# Assay type: functional
row,Structure (SMILES),Activity
1,C=CC(C)(C)c1c(O)cc(O)c2c(=O)c3ccc(O)c(O)c3oc12,Active
2,C=C(c1c(OC)cc(O)c2c(=O)c3ccc(O)c(O)c3oc12)C(C)C,Active
3,COc1ccc(O)c(C(C)(C)C)c1.COc1ccc(O)cc1C(C)(C)C,Active
